Legend:
Assay type in all cases: cell-based
[1] = target: T1, pERK1/2 (Thr202/Tyr204), NCI-1H358 (KRAS G12C) (Homo sapiens, UniProt P01116, G12C); assay: Assay of intracellular pERK1/2 (Thr202/Tyr204) phosphorylation in NCI-H358 cells (KRAS G12C); settings: pERK1/2, 2 days, read-out: NCI-H358 (KRAS G12C) IC50
T1 construct: pERK1/2 HTRF read-out
Outline: (§1)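 HTRF detection of Thr202/Tyr204-phosphorylated ERK1/2 (665/615 nm ratio) in lysates from cells treated 2 days with serially 3-fold diluted compound.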

[2] = target: T2, pERK1/2 (Thr202/Tyr204), PANC-1 (KRAS G121D) (Homo sapiens, UniProt P01116, G12D); assay: Assay of intracellular pERK1/2 (Thr202/Tyr204) phosphorylation in PANC-1 cells (KRAS G12D); settings: pERK1/2, 2 days, read-out: PANC-1 (KRAS G12D) IC50
T2 construct: pERK1/2 HTRF read-out
T2 sequence (P01116 1-188 isoform P01116-2 G12D): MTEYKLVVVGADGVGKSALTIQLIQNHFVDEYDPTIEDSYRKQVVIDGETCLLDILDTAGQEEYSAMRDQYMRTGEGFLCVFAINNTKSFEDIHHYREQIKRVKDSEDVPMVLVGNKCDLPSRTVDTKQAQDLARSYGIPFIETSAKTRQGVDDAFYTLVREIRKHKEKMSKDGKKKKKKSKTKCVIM
Outline: as §1

[3] = target: T3, pERK1/2 (Thr202/Tyr204), NCI-1H441 (KRAS G12V) (Homo sapiens, UniProt P01116, G12V); assay: Assay of intracellular pERK1/2 (Thr202/Tyr204) phosphorylation in NCI-H441 cells (KRAS G12V); settings: pERK1/2, 2 days, read-out: NCI-H441 (KRAS G12V) IC50
T3 construct: pERK1/2 HTRF read-out
T3 sequence (P01116 1-188 isoform P01116-2 G12V): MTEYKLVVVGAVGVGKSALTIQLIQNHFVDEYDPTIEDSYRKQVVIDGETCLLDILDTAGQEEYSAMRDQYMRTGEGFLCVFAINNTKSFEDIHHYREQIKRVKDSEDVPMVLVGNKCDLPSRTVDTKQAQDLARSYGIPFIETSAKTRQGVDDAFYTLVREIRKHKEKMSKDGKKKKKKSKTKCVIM
Outline: as §1

T1 sequence (P01116 1-188 isoform P01116-2 G12C): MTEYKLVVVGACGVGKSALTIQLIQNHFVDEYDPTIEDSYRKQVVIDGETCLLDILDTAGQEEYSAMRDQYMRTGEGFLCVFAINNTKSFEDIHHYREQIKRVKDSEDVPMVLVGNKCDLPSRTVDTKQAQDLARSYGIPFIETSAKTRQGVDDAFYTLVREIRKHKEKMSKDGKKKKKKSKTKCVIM

SMILES | IC50 [1] [nM] | IC50 [2] [nM] | IC50 [3] [nM]
CC(c1cccnc1N)N1CCOc2nc(-c3cc(O)cc4ccc(F)c(F)c34)c(F)c3nc(OC[C@@H]4CC(F)(F)CN4C)nc1c23 (single isomer, unassigned) [Compound 50, 4-(10-((R or S)-1-(2-aminopyridin-3-yl)ethyl)-2-(((S)-4,4-difluoro-1-methylpyrrolidin-2-yl)methoxy)-4-fluoro-9,10-dihydro-8H-7-oxa-1,3,6,10-tetraazacyclohepta[de]naphthalen-5-yl)-5,6-difluoronaphthalen-2-ol] | 916 | > 1000 | > 1000
CC(c1cccnc1N)N1CCOc2nc(-c3cc(O)cc(Cl)c3C(F)(F)F)c(F)c3nc(OC[C@@]45CCCN4C[C@H](F)C5)nc1c23 (single isomer, unassigned) [Compound 57, 3-(10-((R or S)-1-(2-aminopyridin-3-yl)ethyl)-4-fluoro-2-(((2R,7aS)-2-fluorotetrahydro-1H-pyrrolizin-7a(5H)-yl)methoxy)-9,10-dihydro-8H-7-oxa-1,3,6,10-tetraazacyclohepta[de]naphthalen-5-yl)-5-chloro-4-(trifluoromethyl)phenol] | 15 | 746 | 32
CC(=O)Nc1ncccc1C(C)N1CCOc2nc(-c3cc(N)c(F)c(C)c3C(F)(F)F)c(F)c3nc(OC[C@@]45CCCN4C[C@H](F)C5)nc1c23 (stereo partly drawn) [Compound 266] | 95 | > 100 | > 100
CC(c1cccnc1N)N1c2nc(OC[C@@]34CCCN3C[C@H](F)C4)nc3c(F)c(-c4c(Cl)ccc5[nH]ncc45)nc(c23)OC[C@@H]1C (stereo partly drawn) [Compound 321] | 1 | 36 | 7
CC(c1cccnc1N)N1CCOc2nc(-c3cc(N)c(F)c(F)c3F)c(F)c3nc(OC[C@@]45CCCN4C[C@H](F)C5)nc1c23 (stereo partly drawn) [Compound 158] | 96 | > 100 | > 100
Cc1c(F)c(N)cc(-c2nc3c4c(nc(OC[C@@]56CCCN5C[C@H](F)C6)nc4c2F)N(C(C)c2cccnc2N)CCO3)c1Cl (stereo partly drawn) [Compound 204] | 1 | 49 | 4
Cc1c(F)c(N)cc(-c2nc3c4c(nc(OC[C@@]56CCCN5C[C@H](F)C6)nc4c2F)N(C2CCNC2)CCO3)c1C(F)(F)F (stereo partly drawn) [Compound 198] | > 100 | > 100 | > 100
Cc1cc(N)cc(-c2nc3c4c(nc(OC[C@@]56CCCN5C[C@H](F)C6)nc4c2F)N(C(C)c2cccnc2N)CCCO3)c1C(F)(F)F (single isomer, unassigned) [Compound 167, 3-((R or S)-1-(5-(5-amino-3-methyl-2-(trifluoromethyl)phenyl)-4-fluoro-2-(((2R,7aS)-2-fluorotetrahydro-1H-pyrrolizin-7a(5H)-yl)methoxy)-9,10-dihydro-7-oxa-1,3,6,11-tetraazacycloocta[de]naphthalen-11(8H)-yl)ethyl)pyridin-2-amine] | > 100 | > 100 | > 100
Cc1cc2[nH]ncc2c(-c2nc3c4c(nc(OC[C@@]56CCCN5C[C@H](F)C6)nc4c2F)N([C@@H](C)c2cccnc2N)[C@@H](C2CC2)CO3)c1C(F)(F)F [Compound 391] | > 100 | > 100 | > 100
C#Cc1c(F)ccc2cc(O)cc(-c3nc4c5c(nc(OC[C@@H]6C[C@@H](F)CN6C)nc5c3F)N(C(C)c3cccnc3N)[C@@H](C)CO4)c12 (single isomer, unassigned) [Compound 285, 4-((S)-10-((R or S)-1-(2-aminopyridin-3-yl)ethyl)-4-fluoro-2-(((2S,4R)-4-fluoro-1-methylpyrrolidin-2-yl)methoxy)-9-methyl-9,10-dihydro-8H-7-oxa-1,3,6,10-tetraazacyclohepta[de]naphthalen-5-yl)-5-ethynyl-6-fluoronaphthalen-2-ol] | 27 | 86 | 17
Cc1c(F)c(N)cc(-c2nc3c4c(nc(OC[C@@]56CCCN5C[C@H](F)C6)nc4c2F)N(C(C)c2cccnc2N)C[C@@H](C)O3)c1C(F)(F)F (single isomer, unassigned) [Compound 247, 3-((R or S)-1-((R)-5-(5-amino-4-fluoro-3-methyl-2-(trifluoromethyl)phenyl)-4-fluoro-2-(((2R,7aS)-2-fluorotetrahydro-1H-pyrrolizin-7a(5H)-yl)methoxy)-8-methyl-8,9-dihydro-10H-7-oxa-1,3,6,10-tetraazacyclohepta[de]naphthalen-10-yl)ethyl)pyridin-2-amine] | > 100 | > 100 | > 100
CC(c1cccnc1N)N1CCOc2nc(-c3c(C(F)(F)F)ccc4[nH]ncc34)c(F)c3nc(OC[C@@]45CCCN4C[C@H](F)C5)nc1c23 (stereo partly drawn) [Compound 15] | 2 | 175 | 17

The next compounds have a lower IC50 [1] than those just listed; values first:

IC50 [1] [nM] | IC50 [2] [nM] | IC50 [3] [nM] | SMILES
0.4 | 0.3 | 0.9 | CC(c1cccnc1N)N1c2nc(OC[C@@]34CCCN3C[C@H](F)C4)nc3c(F)c(-c4c(C5CC5)c(Cl)cc5[nH]ncc45)nc(c23)OC[C@@H]1C (stereo partly drawn) [Compound 332]
0.2 | 4 | 0.3 | CCC(c1cccnc1N)N1CCOc2nc(-c3cc(N)c(F)c(Cl)c3C(F)(F)F)c(F)c3nc(OC[C@@]45CCCN4C[C@H](F)C5)nc1c23 (single isomer, unassigned) [Compound 214, 3-((R or S)-1-(5-(5-amino-3-chloro-4-fluoro-2-(trifluoromethyl)phenyl)-4-fluoro-2-(((2R,7aS)-2-fluorotetrahydro-1H-pyrrolizin-7a(5H)-yl)methoxy)-8,9-dihydro-10H-7-oxa-1,3,6,10-tetraazacyclohepta[de]naphthalen-10-yl)propyl)pyridin-2-amine]
0.4 | 17 | 2 | CC(c1cccnc1N)N1CCOc2nc(-c3cc(N)c(F)cc3C(F)(F)F)c(F)c3nc(OC[C@@]45CCCN4C[C@H](F)C5)nc1c23 (single isomer, unassigned) [Compound 144, 3-((R or S)-1-(5-(5-amino-4-fluoro-2-(trifluoromethyl)phenyl)-4-fluoro-2-(((2R,7aS)-2-fluorotetrahydro-1H-pyrrolizin-7a(5H)-yl)methoxy)-8,9-dihydro-10H-7-oxa-1,3,6,10-tetraazacyclohepta[de]naphthalen-10-yl)ethyl)pyridin-2-amine]
0.2 | 0.4 | 0.5 | CC(c1cccnc1N)N1c2nc(OC[C@@]34CCCN3C[C@H](F)C4)nc3c(F)c(-c4cc(O)cc(Cl)c4C4CC4)nc(c23)OC[C@@H]1C (stereo partly drawn) [Compound 268]
0.2 | 3 | 0.4 | CC(c1cccnc1N)N1CCOc2nc(-c3cc(N)cc(Cl)c3C3CC3)c(F)c3nc(OC[C@@]45CCCN4C[C@H](F)C5)nc1c23 (stereo partly drawn) [Compound 66]
0.2 | 4 | 0.4 | CC(c1cccnc1N)N1CCOc2nc(-c3cc(N)cc(Cl)c3C3CC3)c(F)c3nc(OC[C@@]45CCCN4C[C@H](F)C5)nc1c23 (single isomer, unassigned) [Compound 74, 3-((R or S)-1-(5-(5-amino-3-chloro-2-cyclopropylphenyl)-4-fluoro-2-(((2R,7aS)-2-fluorotetrahydro-1H-pyrrolizin-7a(5H)-yl)methoxy)-8,9-dihydro-10H-7-oxa-1,3,6,10-tetraazacyclohepta[de]naphthalen-10-yl)ethyl)pyridin-2-amine]
0.1 | 0.4 | 0.3 | Cc1c(F)c(N)cc(-c2nc3c4c(nc(OC[C@@]56CCCN5C[C@H](F)C6)nc4c2F)N(C(C)c2cccnc2N)[C@@H](C)CO3)c1C(F)(F)F (single isomer, unassigned) [Compound 250, 3-((R or S)-1-((S)-5-(5-amino-4-fluoro-3-methyl-2-(trifluoromethyl)phenyl)-4-fluoro-2-(((2R,7aS)-2-fluorotetrahydro-1H-pyrrolizin-7a(5H)-yl)methoxy)-9-methyl-8,9-dihydro-10H-7-oxa-1,3,6,10-tetraazacyclohepta[de]naphthalen-10-yl)ethyl)pyridin-2-amine]
0.3 | 0.3 | 0.7 | CC(c1cccnc1N)N1c2nc(OC[C@@]34CCCN3C[C@H](F)C4)nc3c(F)c(-c4cc(N)cc(Cl)c4C(F)(F)F)nc(c23)OC[C@@H]1C (single isomer, unassigned) [Compound 270, 3-((R or S)-1-((S)-5-(5-amino-3-chloro-2-(trifluoromethyl)phenyl)-4-fluoro-2-(((2R,7aS)-2-fluorotetrahydro-1H-pyrrolizin-7a(5H)-yl)methoxy)-9-methyl-8,9-dihydro-10H-7-oxa-1,3,6,10-tetraazacyclohepta[de]naphthalen-10-yl)ethyl)pyridin-2-amine]
0.1 | 1 | 0.3 | [2H]C1([2H])CN(C(C)c2cccnc2N)c2nc(OC[C@@]34CCCN3C[C@H](F)C4)nc3c(F)c(-c4cc(N)c(F)c(C)c4C(F)(F)F)nc(c23)O1 (single isomer, unassigned) [Compound 183, 3-((R or S)-1-(5-(5-amino-4-fluoro-3-methyl-2-(trifluoromethyl)phenyl)-4-fluoro-2-(((2R,7aS)-2-fluorotetrahydro-1H-pyrrolizin-7a(5H)-yl)methoxy)-8,9-dihydro-10H-7-oxa-1,3,6,10-tetraazacyclohepta[de]naphthalen-10-yl-8,8-d2)ethyl)pyridin-2-amine]

From US20260356851A1, “TRICYCLIC COMPOUNDS AND USES THEREOF” (HUTCHMED LIMITED, priority 2023, published 2026)
